The record followed here is patent publication US20250144247A1, “FORMULATIONS TO ENHANCE THE DELIVERY OF GENE THERAPY VECTORS” (priority 2023, published 2025).

Series [1] relates to human airway epithelial cells (HAE). Kind of series: Transepithelial electrical resistance (TEER) of HAE after apical reagent. The series is classed as cell-based. The settings on record: apical 5 minutes; LPC 0.1%, EGTA 250 mM, doxorubicin 5 μM, NaCl 3.6%, Infasurf 35 mg/ml. As to the method:
The University of Iowa In Vitro Models and Cell Culture Core cultured and maintained human airway epithelial cells (HAE) as previously described (33). Briefly, following enzymatic disassociation of trachea and bronchus epithelia, the cells were seeded onto collagen-coated, polycarbonate transwell inserts (0.4 μm pore size; surface area=0.33 cm^2; Corning Costar, Cambridge, MA). HAE were submerged in Ultroser G (USG) medium for 24 hours (37° C. and 5% CO2) at which point the apical media is removed to encourage polarization and differentiation at an air-liquid interface. Transepithelial electrical resistance was measured using an Ohmmeter […]
Disrupting the epithelial tight junctions allows Ad5-based viral vectors access to their basolaterally localized coxsackie and adenovirus receptor (CXADR) (12). Unless otherwise specified, these studies use the Ad5 serotype. […] First, reagents were applied to the apical surface of HAE for 5 minutes and then TEER was measured using an ohmmeter. […] In separate cultures, Ad-GFP (MOI=250) in 50 μl of DMEM combined 1:1 with the test reagents was applied to the apical surface for 2 hours. 5 days post-treatment, cells were imaged by fluorescence microscopy.

Series [2] shares this test system. The series is classed as cell-based. As to conditions: for Ad gene transfer: Ad-GFP MOI=250 combined 1:1 with reagent, apical 2 hours, imaged 5 days, LPC 0.1%, EGTA 250 mM, doxorubicin 5 μM, NaCl 3.6%, Infasurf; for Ad-GFP gene transfer at 1-7% tonicities: Ad-GFP MOI=250, apical 2 h, 5 days.
Series [3] can be described thus: Osmolarity and pH of the solutions. The series is classed as physicochemical.
Series [4] has as its system human airway epithelia (HAE). Kind of series: Endosomal acidification inhibitors on NaCl enhanced Ad5-GFP transduction. The settings on record: pre-treated 2 h with CQ 200 μM or bafilomycin A1 1 μM; Ad5-GFP MOI=250 with NaCl 3.6%. The series is classed as cell-based. The text has this:
GFP expression was quantified by flow cytometry 5 days later. […] GFP was quantified 5 days post-transduction.

`O=C(O)CN(CCOCCOCCN(CC(=O)O)CC(=O)O)CC(=O)O` [EGTA]: the “transepithelial electrical resistance (TEER)” value in series [1] is “reduced TEER”. Further, the Ad gene transfer result in series [2] was “increased gene transfer”.
With `[Cl-].[K+]` [KCl, potassium chloride], the “Ad-GFP gene transfer at 1-7% tonicities” value in series [2] is “Dose-dependent increases”. The Osmolarity worked out at 268 mOsmol/l in series [3] (1% solution); 537 mOsmol/l in series [3] (2% solution); 805 mOsmol/l in series [3] (3% solution); 970 mOsmol/l in series [3] (3.6% solution); 1073 mOsmol/l in series [3] (4% solution); 1341 mOsmol/l in series [3] (5% solution). Besides, the Osmolarity is given as 1610 mOsmol/l in series [3] (6% solution) and 1878 mOsmol/l in series [3] (7% solution).
`O=C([O-])[C@H](O)[C@@H](O)[C@H](O)[C@H](O)CO.[Na+]` [NaGluconate, sodium gluconate]: the Osmolarity in series [3] (3.6% solution) was determined as 120 mOsmol/l.
Consider `CO/C1=C\C(C)=C\[C@@H](C)[C@@H](O)[C@@H](C)C/C(C)=C/C=C/[C@H](OC)[C@@H]([C@@H](C)[C@@H](O)[C@H](C)[C@@]2(O)C[C@@H](O)[C@H](C)[C@@H](C(C)C)O2)OC1=O` [bafilomycin A1], for which the “NaCl enhanced Ad5-GFP transduction after inhibitor” value in series [4] was “significantly decreased”.
Turning to `CCN(CC)CCCC(C)Nc1ccnc2cc(Cl)ccc12` (stereo not shown) [chloroquine], the “NaCl enhanced Ad5-GFP transduction after inhibitor” value in series [4] was “significantly decreased”.
Take `COc1cccc2c1C(=O)c1c(O)c3c(c(O)c1C2=O)C[C@@](O)(C(=O)CO)C[C@@H]3O[C@H]1C[C@H](N)[C@H](O)[C@H](C)O1` [doxorubicin]: the “transepithelial electrical resistance (TEER)” value in series [1] is on record as “decreased TEER”. Further, in series [2], the Ad gene transfer result is listed as “did not enhance Ad gene transfer”.
As to `OC[C@@H](O)[C@@H](O)[C@H](O)[C@H](O)CO` [mannitol], the “Ad-GFP gene transfer at 1-7% tonicities” value in series [2] is on record as “did not enhance gene transfer”. Besides, the Osmolarity in series [3] (1% solution) is listed as 55 mOsmol/l; in series [3] (2% solution) it was 110 mOsmol/l; in series [3] (3% solution), 170 mOsmol/l; in series [3] (4% solution), 220 mOsmol/l; in series [3] (5% solution) it was 270 mOsmol/l; in series [3] (6% solution), 330 mOsmol/l. This molecule came in with an Osmolarity in series [3] (7% solution) of 380 mOsmol/l.
In the case of “N-methyl-d-glucamine gluconate [NMDG gluconate]”, the “Ad-GFP gene transfer at 1-7% tonicities” value in series [2] was “Dose-dependent increases”. The Osmolarity in series [3] (1% solution) is listed as 342 mOsmol/l; in series [3] (2% solution) it was 684 mOsmol/l; in series [3] (3% solution), 1027 mOsmol/l; in series [3] (4% solution), 1369 mOsmol/l; in series [3] (5% solution), 1711 mOsmol/l; in series [3] (6% solution), 2053 mOsmol/l. The molecule further gave an Osmolarity in series [3] (7% solution) of 3693 mOsmol/l.
As to lysophosphatidylcholine [LPC], the “transepithelial electrical resistance (TEER)” value in series [1] is “reduced TEER”. The Ad gene transfer entry in series [2] was “increased gene transfer”.
